Source: patent publication US20220233492A1, “METHOD OF PREVENTING OR TREATING POSTOPERATIVE PAIN” (priority 2019, published 2022)
Entries after “also recorded” stand apart in the source; their conditions may differ.

Experiments:
[1] = double-blinded, randomized preclinical studies with PK/PD correlation analyses; format: in vivo
[2] = tested on: healthy human subjects or subjects undergoing major surgeries; experiment: safety in healthy human subjects or subjects undergoing major surgeries; format: in vivo
[3] = tested on: postoperative pain, subjects underwent laparoscopic colorectal surgery; experiment: Example 1: postoperative IV infusion vs placebo after laparoscopic colorectal surgery; format: in vivo, human
Experimental: Subjects who reported a pain intensity score of at least 4 on the NRS (0-10) after regaining consciousness in the post-anesthesia care unit (PACU) were enrolled in the study. The VVZ-149 group received an 8-hours IV infusion at a loading dose of 1.8 mg/kg for 0.5 h followed by a maintenance dose of 1.3 mg/kg/h for 7.5 h, and the placebo group received a placebo with the same dosing regimen. […] The primary-outcome measure, pain intensity, was evaluated using NRS (0-10) at the scheduled time points through 24 hours post-emergence. […] In rescued patients, anxiety was also highly correlated with both depression (r=0.285, p=0.041) and PCS score (r=0.334, p=0.016).

[4] = tested on: postoperative pain, subjects for an open elective abdominoplasty; experiment: Example 2: IV infusion started before anesthesia induction vs placebo, open elective abdominoplasty; format: in vivo, human
[5] = tested on: postoperative pain, subjects for an elective bunionectomy; experiment: Example 3: IV infusion after nerve block removal vs placebo, elective bunionectomy; format: in vivo, human
Experimental: The primary-outcome measure, pain intensity, was evaluated using NRS (0-10) at the scheduled time points through 48 hours post-emergence. […] Subjects were given 2 stopwatches to start at the time of the start of the study drug infusion (T=0) and were instructed to stop the first stopwatch when “perceptible pain relief”, and the second stopwatch when “meaningful pain relief” is felt by the Time 12 hr.

[6] = tested on: postoperative pain, subjects underwent laparoscopic or robotic-assisted gastrectomy; experiment: Example 4: intraoperative start IV infusion vs placebo, laparoscopic or robotic-assisted gastrectomy; format: in vivo, human; details: for reduction of total amount of opioid consumed vs placebo: p<0.05

## CCCCOc1c(OC)cc(C(=O)NCC2(N(C)C)CCOCC2)cc1OC [VVZ-149, 4-butoxy-N-((4-(dimethylamino)tetrahydro-2H-pyran-4-yl)methyl)-3,5-dimethoxybenzamide]
[1]
  pain relief: dose-dependent pain relief
  sedative or adverse effects: without significant sedative or adverse effects
[1]; versus morphine or gabapentin
  anti-allodynic effect: comparable to morphine or gabapentin
[2]
  clinically significant adverse events (AEs): No clinically significant adverse events
[3]; 8-hours IV infusion 1.8 mg/kg 0.5 h + 1.3 mg/kg/h […], through 24 hours post-emergence, FIG. 1
  pain intensity (NRS 0-10) vs placebo: lower pain intensity
[3]; all patients, FIG. 2
  opioid consumption (hydromorphone via PCA and rescue) vs placebo: significant less opioid consumption
[3]; hydromorphone PCA, FIG. 3 and FIG. 4
  number of PCA demands vs placebo: significantly reduced the patients' need for postoperative analgesia; also recorded: significantly lower
[3]; subgroup of rescued patients (rescue hydromorphone in first 2 hours post-emergence), FIG. 7
  pain intensity vs placebo subgroup: reduced pain intensity
[3]; subgroup of rescued patients, FIG. 7
  decrease in hydromorphone use compared to placebo: 40%
[3]; subgroup with severe postoperative pain (predose PI 7), FIG. 5a
  pain intensity vs placebo subgroup: significant lower pain intensity
[3]; subgroup with severe postoperative pain (predose PI 7), FIG. 5b
  hydromorphone (via PCA and/or rescue) requested and consumed vs placebo subgroup: less hydromorphone (via PCA and/or rescue) was requested and consumed
[4]; 0-6, 0-12, 0-24 hours, FIG. 9
  total amount of rescue opioid consumed vs placebo: significant lower
[4]; 10-hours IV infusion 160 mg 0.5 h + 840 mg 9.5 h, starting approx. 30 minutes before induction of anesthesia
  reduction of postoperative pain: opioid comparable reduction of postoperative pain
[4]; IV morphine rescue, 0-24 hours, FIG. 8
  number of requests for rescue opioid vs placebo: significant lower
[4]; during the first 12 hours post-emergence, FIG. 10
  proportion of opioid-free subjects vs placebo: higher proportion of subjects that are opioid-free
[5]; 10-hours IV infusion 160 mg 0.5 h + 840 mg 9.5 h after nerve block removal, FIG. 16a
  pain intensity (NRS 0-10) vs placebo: lower pain intensity
[5]; IV morphine rescue, all patients
  opioid consumption vs placebo: less opioid consumption
[5]; subgroup predose PI≥7, FIG. 17a, 17b
  morphine requested and consumed vs placebo subgroup: significant less morphine was requested and consumed
[5]; subgroup with severe postoperative pain, predose PI≥7, FIG. 16b
  pain intensity vs placebo subgroup: significant lower pain intensity
[5]; within 30 minutes after the start of infusion, FIG. 18
  patients reporting perceptible pain relief: More than 50%
[6]; 10 h IV infusion 1.8 mg/kg 0.5 h + 1.3 mg/kg/hr 9.5 h, significance at T=4 (p<0.05), FIG. 12
  mean NRS rest vs placebo: lower at any given timepoint through 24 hrs post-emergence except at T=24
[6]; for 10 hours post-emergence, p<0.01, FIG. 14
  opioid sparing (opioid consumed vs placebo): 31.8%
[6]; in vivo
  number of PCA demand vs placebo: significantly lessened at T=2 and T=10
[6]; rescued patient group, 0-10 hr post-emergence
  reduction of total amount of opioid consumed vs placebo: 31.4%
[6]; rescued patient group, 10-24 hr post-emergence
  reduction of total amount of opioid consumed vs placebo: 35%
[6]; rescued patient group, significance at 4 hr (p<0.01) and 10 hr post-emergence (p<0.05), FIG. 15b
  pain intensity (PIs) vs placebo: much lower
